Publication PMC4201456, “Cytoxicity and Apoptotic Mechanism of Ruthenium(II) Amino Acid Complexes in Sarcoma-180 Tumor Cells” (PLoS ONE, 2014)

Experiments:
[1] = tested on: S180 tumor cells; experiment: Annexin V-FITC/PI double staining, flow cytometry; format: cell-based, murine
Procedure: The cell death of S180 tumor cells was examined using the Annexin V-FITC Apoptosis Detection Kit (BD Biosciences) according to the manufacturer's instructions. S180 cells were treated with complex 2 (40 µM and 60 µM) for 24 h and 48 h. Briefly, 5.0×10^5 cells were harvested and washed with PBS. The cells were re-suspended in 400 µL of binding buffer. Next, 5 µL of Annexin V-FITC and 1 µL of PI were added. Flow cytometric analysis was performed immediately after supravital staining. Data acquisition and analysis were performed on a flow cytometer (FACSCalibur, BD Biosciences) using Cell Quest software. The criteria for positivity in cells in early stages of apoptosis were Annexin V-positive and PI-negative, whereas the criteria for cells in the late stages of apoptosis were both Annexin V-positive and PI-positive.

[2] = tested on: S180 cells; experiment: Cell cycle analysis by PI flow cytometry; format: cell-based, murine
Procedure: The S180 cells were treated with complex 2 (40 µM and 60 µM) for 24 h and 48 h. Briefly, 5.0×10^5 cells were harvested by centrifugation, washed with phosphate-buffered saline (PBS), fixed with 70% (v/v) cold ethanol and stored overnight at −20°C. The fixed cells were washed with PBS and incubated with propidium iodide (PI; Sigma-Aldrich) containing 0.05% RNase. The samples were incubated at 4°C in the dark and analyzed by flow cytometry (FACS Calibur, BD Biosciences). The percentage of cells in the G0/G1, S, G2/M and sub-G1 phases was analyzed using ModFit software.

[3] = tested on: caspase 8; experiment: Real-time RT-PCR gene expression, caspase 8; format: cell-based, murine; settings: S180 cells, 40 µM, 6 h; p>0.05
Procedure: (§1) The S180 cells were treated with 40 µM complex 2 for 6 h. Total RNA was extracted with Trizol reagent (Sigma-Aldrich, USA) following the manufacturer's protocol. Total RNA (2.0 µg) was used to produce complementary DNA (cDNA) with random primers (Applied Biosystems, USA) in a 20 µL reaction mixture according to the manufacturer's protocol.
(§2) Real-time PCR was carried out using a Line Gene K (Bioer Technology) instrument. Real-time PCR reactions were carried out in a 20 µL reaction mixture, including 2 µL of cDNA, 10 µL of SYBR Green PCR Master Mix (LGC Biotechnology, UK), and 2.0 µL of 400 nM forward and reverse primers. The PCR program was initiated at 95°C for 15 min followed by 40 cycles of 95°C for 15 s, 55°C for 15 s, and 72°C for 30 s. The data were analyzed according to the comparative Ct method and were normalized to the β-actin reference gene expression in each sample.

[4] = tested on: p53; experiment: Real-time RT-PCR gene expression, p53; format: cell-based, murine; settings: S180 cells, 40 µM, 6 h; p>0.05
Procedure: as §1, §2

[5] = tested on: S180 cells; experiment: Mitochondrial membrane potential, JC-1 flow cytometry; format: cell-based, murine; settings: 24 h; for percentage of cells with depolarized mitochondria: control 11.5%; for percentage of cells showing red fluorescence (upper-right quadrant): control 88.5%
Procedure: The effect of complex 2 on the mitochondrial membrane potential (ΔΨm) was measured using JC-1 dye (BD Biosciences) by flow cytometry according to the manufacturer's instructions. Briefly, 3.0×10^5 S180 cells were treated with complex 2 (40 µM and 60 µM) for 24 h. After incubation, the cells were harvested and washed with PBS. The cells were then incubated with JC-1 dye (BD Biosciences) for 15 min at 37°C in the dark. The stained cells were washed, resuspended in assay buffer, and immediately analyzed by flow cytometry. The data were analyzed using the Cell Quest software.

[6] = tested on: caspase-9; experiment: Caspase activity colorimetric assay (LEHD-pNA); format: cell-based, murine; settings: S180 cells, 40 µM, 24 h; control 100%
Procedure: Direct measurement of the activity of caspases 3, 8, and 9 were performed using the ApoTarget Caspase 3, 8, and 9 Protease Assay (Invitrogen) according to the manufacturer's recommendations. After treatment with complex 2 (40 µM and 60 µM) for 24 h, the cells were lysed with chilled cell lysis buffer. The protein concentration was then measured using the BSA Protein Assay Kit (BioRad). An aliquot of the protein extract (75 µg) was mixed with 50 µL of 2X reaction buffer supplemented with 10 mM DTT and the substrates of DEVD-pNA (caspase-3), IETD-pNA (caspase-8), or LEHD-pNA (caspase-9). The mixtures were then incubated for 2 h at 37°C. Subsequently, the formation of p-nitroanilide in the samples was measured using an ELISA microplate reader at 405 nm. The increases in the activities of caspase-3, caspase-8, and caspase-9 were determined by comparing the results with the control.

[7] = tested on: pBR322 plasmid DNA; experiment: Atomic force microscopy of plasmid DNA; format: binding; settings: incubated 24 h at 37°C
Procedure: For the atomic force microscopy (TMAFM) experiment, the pBR322 plasmid was heated at 60°C for 10 minutes to obtain the OC form. The concentration of the stock solution was 1 mg/mL in HEPES buffer (4 mM HEPES (pH 7.4) and 2 mM MgCl2. Each sample contained 1 µL of pBR322 plasmid at a concentration of 0.25 µg/µL in a final volume of 40 µL. The amount of complex 2 added is expressed as ri. AFM samples were prepared by casting a 3 µL drop of test solution onto freshly cleaved muscovite green mica disks as the support. The drop was allowed to stand undisturbed for 3 minutes to favor the adsorbate-substrate interaction. Each DNA-laden disk was rinsed with Milli-Q water and was blown dry with clean compressed argon gas directed normal to the disk surface. The samples were stored over silica prior to AFM imaging. All AFM observations were made with a Nanoscope III Multimode AFM (Digital Instruments, Santa Barbara, CA). Nanocrystalline Si cantilevers ([…] in length) with an average spring constant of 50 N/m terminating in conical-shaped Si probe tips (10 nm apical radius and cone angle of 35°) were utilized. High-resolution topographic AFM images of 2×2 µm areas of different specimens were obtained in air at room temperature (relative humidity <40%). The AFM was operated in intermittent contact mode at a rate of 1–3 Hz.

For `F[P-](F)(F)(F)(F)F.NCC(=O)[O-].[Ru+2].c1ccc(-c2ccccn2)nc1.c1ccc(P(CCCCP(c2ccccc2)c2ccccc2)c2ccccc2)cc1` [Complex 2, [Ru(gly)(bipy)(dppb)]PF6], the “cells in early apoptosis (Annexin V+ and PI-)” value (“cells in early apoptosis” for short) ([1]; 40 µM, 24 h) was 19.76%, the “cells in late apoptosis (Annexin V+ and PI+)” value (“cells in late apoptosis” for short) ([1]; 40 µM, 24 h) was 22.76% and the “cells in early apoptosis” value ([1]; 40 µM, 48 h) was 42.59%. For the same compound, the “cells in late apoptosis” value ([1]; 40 µM, 48 h) was 25.16%, the “cells in early apoptosis” value ([1]; 60 µM, 24 h) was 22.48% and the “cells in late apoptosis” value ([1]; 60 µM, 24 h) was 31.67%. For the same compound, the “cells in early apoptosis” value ([1]; 60 µM, 48 h) was 47.48%, the “cells in late apoptosis” value ([1]; 60 µM, 48 h) was 30.24% and the “fraction of G0/G1 cells” value ([2]; 40 µM, 24 h, control 23.6%) was 61.07%. The “fraction of G0/G1 cells” value ([2]; 40 µM, 48 h, control 41.55%) was 59.94%, the “fraction of G0/G1 cells” value ([2]; 60 µM, 24 h, control 23.6%) was 56.09% and the “fraction of G0/G1 cells” value ([2]; 60 µM, 48 h, control 41.55%) was 59.86%. The “expression level of caspase 8 compared with control” value [3] was “remained unchanged”, the “expression level of p53 compared with control” value [4] was “remained unchanged” and the “percentage of cells with depolarized mitochondria” value ([5]; 40 µM) was 45.2%. For the same compound, the “percentage of cells showing red fluorescence (upper-right quadrant)” value ([5]; 40 µM) was 54.3%, the “percentage of cells with depolarized mitochondria” value ([5]; 60 µM) was 52.6% and the “percentage of cells showing red fluorescence (upper-right quadrant)” value ([5]; 60 µM) was 47.1%. For the same compound, the “activity of caspase-9” value [6] was 176.43% and the “interaction with pBR322 plasmid DNA (AFM images)” value [7] was “did not covalently bind to DNA bases or intercalate between bases”.
